Measured values reported in patent US9169310B2 (Zealand Pharma A/S, priority 2010, dated 2015).
Starred links: 1 amine or outer side, 2 acyl side, 3 side chain; linkers in the order of their positions; H or OH if unused. Non-standard residues stand in square brackets, D forms with d. Residues, ends and D or L forms follow the SMILES beside them. Groups on a side chain read outwards from the residue. *: point of attachment. γGlu = O=C(O)[C@H](CCC(=O)[*:2])N[*:1]; Palmitoyl = CCCCCCCCCCCCCCCC(=O)*; Aib = CC(C)(N)C(=O)O

Columns and labels:
human glucagon-R = target: T1, human glucagon-R (Homo sapiens, UniProt P47871); assay: Glucagon receptor efficacy assay (cAMP formation, FlashPlate cAMP kit); type: cell-based; conditions: HEK293 cells expressing human glucagon-R; cAMP formed, 15 min at 37° C.; read-out: EC50 nM) GluR
T1 construct: expressed in transfected cells
Experimental: (§1) The 5′-end primers additionally encoded a near Kozak consensus sequence to ensure efficient translation.
(§2) 48 hr after transfection, cells were seeded for limited dilution cloning and selected with 1 mg/ml G418 in the culture medium.

human GLP-1R = target: T2, human GLP-1R (Homo sapiens, UniProt P43220); assay: GLP-1 receptor efficacy assay (cAMP formation, FlashPlate cAMP kit); type: cell-based; conditions: HEK293 cells expressing human GLP-1R; cAMP formed, 15 min at 37° C.
T2 construct: expressed in transfected cells
Experimental: as §1, §2

T1 sequence (P47871 26-477): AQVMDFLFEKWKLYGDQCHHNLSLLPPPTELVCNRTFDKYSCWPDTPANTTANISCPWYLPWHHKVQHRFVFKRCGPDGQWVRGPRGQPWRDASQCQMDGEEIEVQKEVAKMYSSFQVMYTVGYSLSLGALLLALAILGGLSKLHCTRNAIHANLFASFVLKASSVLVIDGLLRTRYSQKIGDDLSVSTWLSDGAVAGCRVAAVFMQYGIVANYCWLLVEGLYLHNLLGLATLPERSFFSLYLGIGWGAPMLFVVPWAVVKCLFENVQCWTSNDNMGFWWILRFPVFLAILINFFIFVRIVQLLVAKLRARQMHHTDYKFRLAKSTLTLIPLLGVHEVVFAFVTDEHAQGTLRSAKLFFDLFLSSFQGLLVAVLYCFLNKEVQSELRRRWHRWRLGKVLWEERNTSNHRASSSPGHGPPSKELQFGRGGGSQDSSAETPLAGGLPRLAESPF
T2 sequence (P43220 24-463): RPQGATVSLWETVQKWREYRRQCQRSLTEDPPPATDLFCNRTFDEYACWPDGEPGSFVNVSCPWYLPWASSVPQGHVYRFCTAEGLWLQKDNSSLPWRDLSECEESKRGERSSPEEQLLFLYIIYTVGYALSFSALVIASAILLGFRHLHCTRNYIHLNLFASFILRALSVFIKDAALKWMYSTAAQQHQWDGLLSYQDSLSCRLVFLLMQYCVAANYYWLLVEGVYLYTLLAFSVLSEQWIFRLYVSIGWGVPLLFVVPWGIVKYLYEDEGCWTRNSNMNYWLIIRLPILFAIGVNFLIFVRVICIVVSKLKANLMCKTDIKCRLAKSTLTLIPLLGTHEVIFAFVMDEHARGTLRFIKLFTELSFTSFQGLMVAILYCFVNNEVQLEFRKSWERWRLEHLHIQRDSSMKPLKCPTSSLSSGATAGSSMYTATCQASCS

CCCCCCCCCCCCCCCC(=O)N[C@@H](CCC(=O)NCCCC[C@H](NC(=O)[C@H](CO)NC(=O)[C@H](CCC(=O)O)NC(=O)[C@H](CC(C)C)NC(=O)[C@H](Cc1ccc(O)cc1)NC(=O)[C@H](CCCCN)NC(=O)[C@H](CO)NC(=O)[C@H](Cc1ccc(O)cc1)NC(=O)[C@H](CC(=O)O)NC(=O)[C@H](CO)NC(=O)[C@@H](NC(=O)[C@H](Cc1ccccc1)NC(=O)[C@@H](NC(=O)CNC(=O)[C@H](Cc1c[nH]cn1)NC(=O)C(C)(C)NC(=O)[C@@H](N)Cc1c[nH]cn1)[C@@H](C)O)[C@@H](C)O)C(=O)N[C@@H](C)C(=O)N[C@@H](C)C(=O)N[C@@H](CCC(=O)O)C(=O)N[C@@H](CCC(=O)O)C(=O)N[C@@H](Cc1ccccc1)C(=O)N[C@H](C(=O)N[C@@H](CCC(=O)O)C(=O)N[C@@H](Cc1c[nH]c2ccccc12)C(=O)N[C@@H](CC(C)C)C(=O)N[C@@H](CC(C)C)C(=O)N[C@@H](CCC(=O)O)C(=O)N[C@@H](C)C(N)=O)C(C)C)C(=O)O [Compound 31] (H-H[Aib]HGTFTSDYSKYLESK([γGlu-Palmitoyl])AAEEFVEWLLEA-NH2)
EC50 (human glucagon-R): 0.15 nM
EC50 (human GLP-1R): 0.09 nM
